Like-named read-outs stand apart in the source and are kept apart here.
Key:
[1] = biological target: T1, KOR (Cavia porcellus, UniProt P41144); experiment: Opioid receptor binding, KOR, guinea pig brain membranes; settings: in vitro binding assay, guinea pig brain membranes
T1 construct: from tissue

[2] = biological target: T2, DOR (Rattus norvegicus, UniProt P33533); experiment: Opioid receptor binding, DOR, rat brain membranes; settings: in vitro binding assay, rat brain membranes
T2 construct: from tissue
T2 sequence (P33533 whole entry): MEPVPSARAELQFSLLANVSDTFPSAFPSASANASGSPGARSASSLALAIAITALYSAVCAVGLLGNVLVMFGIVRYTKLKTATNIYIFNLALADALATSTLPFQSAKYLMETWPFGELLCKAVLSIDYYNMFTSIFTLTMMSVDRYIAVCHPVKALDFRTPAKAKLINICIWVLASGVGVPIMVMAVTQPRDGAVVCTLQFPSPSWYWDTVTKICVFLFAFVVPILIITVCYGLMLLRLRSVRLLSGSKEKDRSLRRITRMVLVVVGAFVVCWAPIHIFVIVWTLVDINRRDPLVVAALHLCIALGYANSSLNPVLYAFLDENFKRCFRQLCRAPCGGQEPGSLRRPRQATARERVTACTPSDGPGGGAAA

[3] = biological target: T3, MOR (Rattus norvegicus, UniProt P33535); experiment: Opioid receptor binding, MOR, rat brain membranes; settings: in vitro binding assay, rat brain membranes
T3 construct: from tissue
T3 sequence (P33535 whole entry): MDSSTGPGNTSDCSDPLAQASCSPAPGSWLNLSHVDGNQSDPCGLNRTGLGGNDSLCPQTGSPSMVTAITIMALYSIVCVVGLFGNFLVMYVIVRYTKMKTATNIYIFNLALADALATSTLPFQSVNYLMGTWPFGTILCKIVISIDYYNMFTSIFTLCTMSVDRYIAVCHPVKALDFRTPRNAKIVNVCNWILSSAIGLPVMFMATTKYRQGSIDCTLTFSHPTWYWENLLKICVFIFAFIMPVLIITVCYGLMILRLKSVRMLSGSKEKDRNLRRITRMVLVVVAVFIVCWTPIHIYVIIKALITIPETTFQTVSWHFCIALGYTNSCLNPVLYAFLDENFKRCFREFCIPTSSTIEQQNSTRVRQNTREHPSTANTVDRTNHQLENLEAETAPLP

T1 sequence (P41144 whole entry): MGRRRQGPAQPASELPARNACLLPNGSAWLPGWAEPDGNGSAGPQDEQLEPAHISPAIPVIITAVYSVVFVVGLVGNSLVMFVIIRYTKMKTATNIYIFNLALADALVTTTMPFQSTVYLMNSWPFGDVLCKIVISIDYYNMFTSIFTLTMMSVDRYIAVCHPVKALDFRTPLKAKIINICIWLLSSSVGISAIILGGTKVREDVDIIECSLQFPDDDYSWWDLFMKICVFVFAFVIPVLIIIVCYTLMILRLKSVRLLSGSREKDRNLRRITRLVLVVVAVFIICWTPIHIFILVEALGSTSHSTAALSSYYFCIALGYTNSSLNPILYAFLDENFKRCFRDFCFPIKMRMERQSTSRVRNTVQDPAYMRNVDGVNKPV

| Compound | Ki ([1]; read-out: Binding Ki (nM) KOR) [nM] | Ki ([2]; read-out: Binding Ki (nM) DOR) [nM] | Ki ([3]; read-out: Binding Ki (nM) MOR) [nM] | Ki ([1]; Binding Ki (nM) KOR) [nM] | Ki ([2]; Binding Ki (nM) DOR) [nM] | Ki ([3]; Binding Ki (nM) MOR) [nM] |
| --- | --- | --- | --- | --- | --- | --- |
| CO[C@@]12CC[C@@H](NCCCC(=O)OC(C)(C)C)[C@@H]3Oc4c(O)ccc5c4[C@@]31CCN(C)[C@@H]2C5 [16-t-Bu ester] | 8.79 | 1.63 | 0.54 | – | – | – |
| CO[C@@]12CC[C@H](N[C@@H](CCC(N)=O)C(=O)OC(C)(C)C)[C@@H]3Oc4c(O)ccc5c4[C@@]31CCN(C)[C@@H]2C5 [17-t-Bu ester] | – | – | – | 8.97 | 0.18 | 0.18 |
| CO[C@@]12CC[C@@H](N[C@@H](CCC(N)=O)C(=O)OC(C)(C)C)[C@@H]3Oc4c(O)ccc5c4[C@@]31CCN(C)[C@@H]2C5 [18-t-Bu ester] | – | – | – | 163 | 1.35 | 1.65 |
| CO[C@@]12CC[C@H](N[C@@H](CCC(=O)OC(C)(C)C)C(=O)OC(C)(C)C)[C@@H]3Oc4c(O)ccc5c4[C@@]31CCN(C)[C@@H]2C5 [19-t-Bu ester] | 18.3 | 0.32 | 0.27 | – | – | – |
| CO[C@@]12CC[C@@H](N[C@@H](CCC(=O)OC(C)(C)C)C(=O)OC(C)(C)C)[C@@H]3Oc4c(O)ccc5c4[C@@]31CCN(C)[C@@H]2C5 [20-t-Bu ester] | 81.5 | 0.19 | 1.53 | – | – | – |
| CO[C@@]12CC[C@H](NCCC(=O)OC(C)(C)C)[C@@H]3Oc4c(O)ccc5c4[C@@]31CCN(C)[C@@H]2C5 [21-t-Bu ester] | – | – | – | 13.5 | 0.83 | 0.31 |
| CO[C@@]12CC[C@@H](NCCC(=O)OC(C)(C)C)[C@@H]3Oc4c(O)ccc5c4[C@@]31CCN(C)[C@@H]2C5 [22-t-Bu ester] | – | – | – | 7.54 | 0.23 | 0.35 |
| CO[C@@]12CC[C@H](N[C@@H](CCSC)C(=O)OC(C)(C)C)[C@@H]3Oc4c(O)ccc5c4[C@@]31CCN(C)[C@@H]2C5 [23-t-Bu ester] | 10.5 | 0.12 | 0.32 | – | – | – |
| CO[C@@]12CC[C@@H](N[C@@H](CCSC)C(=O)OC(C)(C)C)[C@@H]3Oc4c(O)ccc5c4[C@@]31CCN(C)[C@@H]2C5 [24-t-Bu ester] | – | – | – | 166 | 0.81 | 1.83 |
| CO[C@@]12CC[C@H](N[C@@H](CC(N)=O)C(=O)OC(C)(C)C)[C@@H]3Oc4c(O)ccc5c4[C@@]31CCN(C)[C@@H]2C5 [26-t-Bu ester] | 5.33 | 0.33 | 0.45 | – | – | – |
| CO[C@@]12CC[C@@H](N[C@@H](CC(N)=O)C(=O)OC(C)(C)C)[C@@H]3Oc4c(O)ccc5c4[C@@]31CCN(C)[C@@H]2C5 [27-t-Bu ester] | – | – | – | 75.8 | 0.66 | 0.6 |
| CO[C@@]12CC[C@H](N[C@H](C(=O)OC(C)(C)C)C(C)C)[C@@H]3Oc4c(O)ccc5c4[C@@]31CCN(C)[C@@H]2C5 [28-t-Bu ester] | 10.5 | 0.18 | 0.25 | – | – | – |
| CO[C@@]12CC[C@@H](N[C@H](C(=O)OC(C)(C)C)C(C)C)[C@@H]3Oc4c(O)ccc5c4[C@@]31CCN(C)[C@@H]2C5 [29-t-Bu ester] | – | – | – | 214 | 0.86 | 1.03 |
| CO[C@@]12CC[C@H](N[C@@H](C(=O)OC(C)(C)C)C(C)C)[C@@H]3Oc4c(O)ccc5c4[C@@]31CCN(C)[C@@H]2C5 [30-t-Bu ester] | 22.7 | 0.093 | 0.11 | – | – | – |
| CO[C@@]12CC[C@@H](N[C@@H](C(=O)OC(C)(C)C)C(C)C)[C@@H]3Oc4c(O)ccc5c4[C@@]31CCN(C)[C@@H]2C5 [31-t-Bu ester] | 206 | 0.21 | 1.98 | – | – | – |
| CO[C@@]12CC[C@H](N[C@H](C(=O)N[C@@H](Cc3ccc(O)cc3)C(=O)OC(C)(C)C)C(C)C)[C@@H]3Oc4c(O)ccc5c4[C@@]31CCN(C)[C@@H]2C5 [32-t-Bu ester] | 3.5 | 0.17 | – | – | – | 0.11 |
| CO[C@@]12CC[C@H](N[C@H](C(=O)OC(C)(C)C)[C@@H](C)O)[C@@H]3Oc4c(O)ccc5c4[C@@]31CCN(C)[C@@H]2C5 [34-t-Bu ester] | – | – | – | 9.24 | 0.37 | 0.2 |
